One experiment concerns the target rat P2X7R (Rattus norvegicus (Rat), UniProt Q64663). The experiment can be described thus: rat P2X7 Ca2+ influx, Screen Quest Fluo-8 No Wash Calcium Assay Kit (FLIPR TETRA). It counts as cell-based. The conditions noted are these: read-out: rP2X7 (IC50; nM). The protocol: Ca^2+ influx was measured in HEK-293 cells stably transfected with the receptor using Screen Quest™ Fluo-8 No Wash Calcium Assay Kit (AAt Bioquest®). Briefly, once inside the cells, the lipophilic blocking groups of Fluo-8 are cleaved by non-specific cell esterases, resulting in a negatively-charged fluorescent-dye that stays inside cells. Its fluorescence increases upon binding to calcium. When HEK-293/P2X7 cells were stimulated with BzATP, Ca^2+ entered the cells and the fluorescence of Fluo-8 NW increaseed.
To routinely test the compounds, HEK-293 cells stably transfected with rat P2X7R were seeded overnight in growth medium at 10000, 15000 or 20000 cells/well in 384-well plate, according to the level of response after thawing. 24 hours later, the medium was removed and the cells were pre-loaded at RT for 1 hour with 20 μL/w of Fluo-8 NW prepared in Tyrode 0.3 mM Ca^2+/Mg^2+-free.
Compounds were tested at […] according to the following method: • first injection at […] of 10 μL of 3× test compound (in Tyrode's buffer 0.3 mM Ca^2+/Mg^2+-free+DMSO 0.5% final concentration) • 5′ incubation • second injection at […] of 15 µL of 3× BzATP at ˜ECK) (in Tyrode's buffer 0.3 mM Ca^2+/Mg^2+-free+BSA 0.0003% final concentration) • Fluorescence recording for 3′
Between one plate and the following, tips were extensively washed with water, then with 100% DMSO and finally with water to avoid carry-over inside the tips.
The effect of the test compounds was measured as percent inhibition vs a reference antagonist and IC50 values were calculated accordingly.

The target in another experiment is human P2X7 channel (Homo sapiens (Human), UniProt Q99572). The experiment can be described thus: human P2X7 channel assay by automated patch-clamp (QPatch16X), BzATP-evoked current. Type of experiment: cell-based. Particulars: HEK-293 cells expressing P2X7, whole-cell voltage clamp, 100 microM BzATP, holding -80 mV; read-out: hP2X7 (IC50; nM). As to the method: In order to directly monitor the block of P2X7 channel, an electrophysiological assay was developed and implemented on the QPatch16X automated electrophysiology instrument.
HEK-293 cells expressing the P2X7 channels were cultured in modified EMEM.
72 hours before experiment, 5 million cells were seeded onto T225 flasks. Just before the experiment cells were washed twice, detached from the flask with trypsin-EDTA, re-suspended in the suspension solution and placed on the QPatch 16x.
The compounds (20 mM in a 100% DMSO) stored at −20° C. were prepared the day of the experiment (a first dilution 1:20 in 100% DMSO to prepare a 1 mM stock solution, then a 1 microM solution in external solution+a serial dilution 1:10).
The standard whole-cell voltage clamp experiments were performed at room temperature. For these experiments the multihole technology was used and the data were sampled at 2 KHz.
After establishment of the seal and the passage in the whole cell configuration, the cells were held at −80 mV. The P2XR7 current was evoked by applying 100 microM of BzATP alone (4 times) and then in the presence increasing concentrations of the compound under investigation (1, 10, 100 and 1000 nM).
The pre-incubation periods 5 to 8 contain increasing concentrations of the compound of interest (1, 10, 100 and 1000 nM), as illustrated in FIGURE.
The maximal inward current evoked by BzATP in absence or presence of increasing concentrations of the compounds under investigation was measured and normalized.
Y: normalized response, 100% down to 0%, decreasing as X increases.
LogIC50: same log units as X
HillSlope: slope factor or HS, unitless
(In general: Patch clamp records ionic current or voltage across a cell membrane.)

Setting [1] is: Table 4, HEK-293 cells stably transfected with rat P2X7R, BzATP stimulation.
The mark [2] stands for this setting: Table 5, comparison with Compound 59 of WO2015118019.

Where two headings read alike, the source gives them in different places.

Chain of human P2X7 channel (Q99572 whole entry): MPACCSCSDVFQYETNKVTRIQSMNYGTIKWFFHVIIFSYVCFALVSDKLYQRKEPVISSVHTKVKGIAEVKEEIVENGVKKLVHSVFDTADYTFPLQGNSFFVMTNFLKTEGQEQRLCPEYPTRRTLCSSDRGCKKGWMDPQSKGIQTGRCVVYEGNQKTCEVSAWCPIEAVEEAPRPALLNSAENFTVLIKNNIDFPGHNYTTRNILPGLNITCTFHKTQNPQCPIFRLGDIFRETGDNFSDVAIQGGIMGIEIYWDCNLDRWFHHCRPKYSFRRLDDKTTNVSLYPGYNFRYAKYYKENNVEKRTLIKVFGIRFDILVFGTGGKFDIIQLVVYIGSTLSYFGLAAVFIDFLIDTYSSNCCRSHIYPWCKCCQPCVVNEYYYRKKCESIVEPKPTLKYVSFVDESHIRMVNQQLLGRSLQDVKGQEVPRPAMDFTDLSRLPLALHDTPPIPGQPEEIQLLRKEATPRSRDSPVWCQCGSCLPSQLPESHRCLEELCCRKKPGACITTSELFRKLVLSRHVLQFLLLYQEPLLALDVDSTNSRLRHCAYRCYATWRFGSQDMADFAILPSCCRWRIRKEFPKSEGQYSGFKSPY
Chain of rat P2X7R (Q64663 whole entry): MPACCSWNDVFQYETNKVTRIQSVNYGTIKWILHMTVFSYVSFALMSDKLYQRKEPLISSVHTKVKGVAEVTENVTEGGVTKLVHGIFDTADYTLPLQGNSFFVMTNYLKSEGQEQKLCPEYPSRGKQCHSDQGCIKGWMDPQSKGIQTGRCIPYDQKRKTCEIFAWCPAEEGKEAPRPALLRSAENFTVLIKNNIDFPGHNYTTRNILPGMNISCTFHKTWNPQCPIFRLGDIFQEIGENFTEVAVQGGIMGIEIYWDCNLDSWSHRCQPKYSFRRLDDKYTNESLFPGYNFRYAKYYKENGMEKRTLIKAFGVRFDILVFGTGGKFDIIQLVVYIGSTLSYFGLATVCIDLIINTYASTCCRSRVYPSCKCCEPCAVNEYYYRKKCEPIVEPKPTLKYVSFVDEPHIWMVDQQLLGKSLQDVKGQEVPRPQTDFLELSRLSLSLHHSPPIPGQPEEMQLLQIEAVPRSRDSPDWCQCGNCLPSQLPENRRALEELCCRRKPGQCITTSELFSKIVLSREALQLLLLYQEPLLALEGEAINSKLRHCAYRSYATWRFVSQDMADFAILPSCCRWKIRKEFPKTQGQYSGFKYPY

What is called IC50 is the point on the concentration scale where inhibition reaches its midpoint. On to `O=C(NCC(c1scnc1C(F)F)N1CCC(OCc2ccccc2F)CC1)c1c(F)cccc1Cl` (stereo not drawn) [Compound 25, 2-chloro-N-{2-[4-(difluoromethyl)-1,3-thiazol-5-yl]-2-{4-[(2-fluorophenyl)methoxy]piperidin-1-yl}ethyl}-6-fluorobenzamide], for which, on rat P2X7R (setting [1]), the IC50 stood at 252 nM.

`Cc1ncsc1C(CNC(=O)c1cccc2ncccc12)N1CCC(Oc2cccc(F)c2)CC1` (stereo not drawn) [Compound 21, N-{2-[4-(3-fluorophenoxy)piperidin-1-yl]-2-(4-methyl-1,3-thiazol-5-yl)ethyl}quinoline-5-carboxamide]: the IC50 at rat P2X7R (setting [1]) came out at 268 nM; at rat P2X7R (setting [2]), 268 nM; on human P2X7 channel, 26.4 nM.

With `Cc1ncsc1C(CNC(=O)c1cccc2ncccc12)N1CCC(Oc2ccc(Cl)cc2)CC1` (stereo not drawn) [Compound 20, N-{2-[4-(4-chlorophenoxy)piperidin-1-yl]-2-(4-methyl-1,3-thiazol-5-yl)ethyl}quinoline-5-carboxamide], at rat P2X7R (setting [1]), the IC50 is 808 nM.

Take `Cc1ncsc1C(CNC(=O)c1c(F)cccc1Cl)N1CCC(OCc2ccccc2F)CC1` (stereo not drawn) [Compound 4, 2-chloro-6-fluoro-N-(2-{4-[(2-fluorophenyl)methoxy]piperidin-1-yl}-2-(4-methyl-1,3-thiazol-5-yl)ethyl)benzamide]: the IC50 on rat P2X7R (setting [1]) worked out at 953 nM; on human P2X7 channel it was 28.1 nM.

Consider `Cc1ncsc1C(CNC(=O)c1cccc2ncccc12)N1CCC(OCc2ccc(F)c(F)c2)CC1` (stereo not drawn) [Compound 18, N-(2-{4-[(3,4-difluorophenyl)methoxy]piperidin-1-yl}-2-(4-methyl-1,3-thiazol-5-yl)ethyl)quinoline-5-carboxamide], for which the figures for the concentration for half-maximal inhibition (IC50) on rat P2X7R (setting [1]) and at human P2X7 channel were 374 nM and 36.9 nM, respectively.

Consider `Cc1ncsc1C(CNC(=O)c1c(F)cccc1Cl)N1CCC(Oc2ccc(F)c(F)c2)CC1` (stereo not drawn) [Compound 12, 2-chloro-N-{2-[4-(3,4-difluorophenoxy)piperidin-1-yl]-2-(4-methyl-1,3-thiazol-5-yl)ethyl}-6-fluorobenzamide], for which the results for the 50% inhibitory concentration (IC50) on rat P2X7R (setting [1]) and on human P2X7 channel were 380 nM and 25.8 nM, respectively.

In the case of `O=C(NCC(c1scnc1C(F)F)N1CCC(Oc2ccc(F)cc2)CC1)c1cccc2ncccc12` (stereo not drawn) [Compound 34, N-{2-[4-(difluoromethyl)-1,3-thiazol-5-yl]-2-[4-(4-fluorophenoxy)piperidin-1-yl]ethyl}quinoline-5-carboxamide], the IC50 at rat P2X7R (setting [1]) came to 144 nM; at rat P2X7R (setting [2]), 144 nM; on human P2X7 channel, 39.7 nM.

Take `O=C(NCC(c1scnc1C(F)F)N1CCC(Oc2ccccc2F)CC1)c1c(F)cccc1Cl` (stereo not drawn) [Compound 30, 2-chloro-N-{2-[4-(difluoromethyl)-1,3-thiazol-5-yl]-2-[4-(2-fluorophenoxy)piperidin-1-yl]ethyl}-6-fluorobenzamide]: the IC50 at rat P2X7R (setting [1]) amounted to 329 nM; at human P2X7 channel, 40.7 nM.

As to `Cc1ncsc1C(CNC(=O)c1c(F)cccc1Cl)N1CCC(OCc2ccc(Cl)cc2)CC1` (stereo not drawn) [Compound 2, 2-chloro-N-(2-{4-[(4-chlorophenyl)methoxy]piperidin-1-yl}-2-(4-methyl-1,3-thiazol-5-yl)ethyl)-6-fluorobenzamide], at rat P2X7R (setting [1]), the concentration for half-maximal inhibition (IC50) worked out at 971 nM.

On to `O=C(NCC(c1scnc1C(F)F)N1CCC(OCc2ccccc2F)CC1)c1cccc2ncccc12` (stereo not drawn) [Compound 32, N-{2-[4-(difluoromethyl)-1,3-thiazol-5-yl]-2-{4-[(2-fluorophenyl)methoxy]piperidin-1-yl}ethyl}quinoline-5-carboxamide], for which the IC50 at rat P2X7R (setting [1]) turned out to be 251 nM.

As for `Cc1ncsc1C(CNC(=O)c1cccc2ncccc12)N1CCC(Oc2cc(F)cc(F)c2)CC1` (stereo not drawn) [Compound 23, N-{2-[4-(3,5-difluorophenoxy)piperidin-1-yl]-2-(4-methyl-1,3-thiazol-5-yl)ethyl}quinoline-5-carboxamide], on rat P2X7R (setting [1]), the IC50 came to 631 nM.

Turning to `Cc1ncsc1C(CNC(=O)c1cccc2ncccc12)N1CCC(OCc2ccc(Cl)cc2)CC1` (stereo not drawn) [Compound 14, N-(2-{4-[(4-chlorophenyl)methoxy]piperidin-1-yl}-2-(4-methyl-1,3-thiazol-5-yl)ethyl)quinoline-5-carboxamide], the IC50 at rat P2X7R (setting [1]) worked out at 1120 nM.

Consider `O=C(NCC(c1scnc1C(F)F)N1CCC(OCc2cc(F)cc(F)c2)CC1)c1c(F)cccc1Cl` (stereo not drawn) [Compound 26, 2-chloro-N-{2-[4-(difluoromethyl)-1,3-thiazol-5-yl]-2-{4-[(3,5-difluorophenyl)methoxy]piperidin-1-yl}ethyl}-6-fluorobenzamide], for which the 50% inhibitory concentration (IC50) on rat P2X7R (setting [1]) was determined as 578 nM.

`O=C(NCC(c1scnc1C(F)F)N1CCC(Oc2ccc(Cl)cc2)CC1)c1c(F)cccc1Cl` (stereo not drawn) [Compound 28, 2-chloro-N-{2-[4-(4-chlorophenoxy)piperidin-1-yl]-2-[4-(difluoromethyl)-1,3-thiazol-5-yl]ethyl}-6-fluorobenzamide]: the IC50 at rat P2X7R (setting [1]) amounted to 2020 nM.

Consider `O=C(NCC(c1scnc1C(F)F)N1CCC(OCc2ccc(F)c(F)c2)CC1)c1c(F)cccc1Cl` (stereo not drawn) [Compound 27, 2-chloro-N-{2[4-(difluoromethyl)-1,3-thiazol-5-yl]-2-{4-[(3,4-difluorophenyl)methoxy]piperidin-1-yl}ethyl}-6-fluorobenzamide], for which the IC50 at rat P2X7R (setting [1]) was 1210 nM.

`O=C(NCC(c1scnc1C(F)F)N1CCC(Oc2ccc(Cl)cc2)CC1)c1cccc2ncccc12` (stereo not drawn) [Compound 35, N-{2-[4-(4-chlorophenoxy)piperidin-1-yl]-2-[4-(difluoromethyl)-1,3-thiazol-5-yl]ethyl}quinoline-5-carboxamide]: the half-inhibitory concentration (IC50) on rat P2X7R (setting [1]) was 323 nM.

Regarding `O=C(NCC(c1scnc1C(F)F)N1CCC(Oc2cccc(F)c2)CC1)c1cccc2ncccc12` (stereo not drawn) [Compound 36, N-{2-[4-(difluoromethyl)-1,3-thiazol-5-yl]-2-[4-(3-fluorophenoxy)piperidin-1-yl]ethyl}quinoline-5-carboxamide], the IC50 on rat P2X7R (setting [1]) worked out at 295 nM.

On to `Cc1ncsc1C(CNC(=O)c1c(F)cccc1Cl)N1CCC(Oc2ccc(Cl)cc2)CC1` (stereo not drawn) [Compound 8, 2-chloro-N-{2-[4-(4-chlorophenoxy)piperidin-1-yl]-2-(4-methyl-1,3-thiazol-5-yl)ethyl}-6-fluorobenzamide], for which the half-maximal inhibitory concentration (IC50) at rat P2X7R (setting [1]) stood at 1310 nM.

Turning to `O=C(NCC(c1scnc1C(F)F)N1CCC(Oc2cc(F)cc(F)c2)CC1)c1cccc2ncccc12` (stereo not drawn) [Compound 38, N-{2-[4-(difluoromethyl)-1,3-thiazol-5-yl]-2-[4-(3,5-difluorophenoxy)piperidin-1-yl]ethyl}quinoline-5-carboxamide], on rat P2X7R (setting [1]), the IC50 was determined as 216 nM.

In the case of `Cc1ncsc1C(CNC(=O)c1cccc2ncccc12)N1CCC(OCc2ccccc2F)CC1` (stereo not drawn) [Compound 16, N-(2-{4-[(2-fluorophenyl)methoxy]piperidin-1-yl}-2-(4-methyl-1,3-thiazol-5-yl)ethyl)quinoline-5-carboxamide], the IC50 on rat P2X7R (setting [1]) was determined as 762 nM.

On to `Cc1ncsc1C(CNC(=O)c1c(F)cccc1Cl)N1CCC(OCc2ccc(F)c(F)c2)CC1` (stereo not drawn) [Compound 6, 2-chloro-N-(2-{4-[(3,4-difluorophenyl)methoxy]piperidin-1-yl}-2-(4-methyl-1,3-thiazol-5-yl)ethyl)-6-fluorobenzamide], for which the IC50 on rat P2X7R (setting [1]) stood at 1160 nM.

Take `O=C(NCC(c1scnc1C(F)F)N1CCC(Oc2cc(F)cc(F)c2)CC1)c1c(F)cccc1Cl` (stereo not drawn) [Compound 31, 2-chloro-N-{2-[4-(difluoromethyl)-1,3-thiazol-5-yl]-2-[4-(3,5-difluorophenoxy)piperidin-1-yl]ethyl}-6-fluorobenzamide]: the IC50 on rat P2X7R (setting [1]) was 458 nM.

The record behind these values is patent US10669267B2, “Substituted N-[2-(4-phenoxypiperidin-1-yl)-2-(1,3-thiazol-5-yl)ethyl]benzamide and N-[2-(4-benzyloxypiperidin-1-yl)-2-(1,3-thiazol-5-yl)ethyl]benzamide derivatives P2X7 receptor antagonists” (Axxam S.P.A., priority 2016, dated 2020).
